{"source": "paper PMC7914648", "about": "(Pharmaceuticals, 2021)", "origin": "cited, not measured here", "details": "mouse, in vivo, iv; cited from earlier work", "data": [{"sequence": "TWPKHFDKHTFYSILKLGKH [L57]", "values": [{"measurement": "brain input", "value": "approximately 0.04 % of the injected dose"}]}]}
